Measurements from patent US20260347373A1, “HETEROCYCLIC COMPOUNDS, COMPOSITIONS THEREOF, AND METHODS OF TREATMENT THEREWITH” (BeOne Medicines I GmbH, priority 2023, published 2026).
Where two headings read alike, the source gives them in different places.

Columns and labels:
KRAS G12D = KRAS G12D (Homo sapiens, UniProt P01116, G12D); test: KRAS G12D Probe Displacement Assay (TR-FRET, GDP-loaded); type: binding
Excerpt: (§1) The synthetic routes of probe 1 and 2, which have been disclosed in PCT/CN2022/070676, are hereby incorporated herein.

WT KRAS = WT KRAS (Homo sapiens, UniProt P01116); test: KRAS WT Probe Displacement Assay (TR-FRET, GDP-loaded); type: binding
Chain of WT KRAS (P01116 1-188 isoform P01116-2): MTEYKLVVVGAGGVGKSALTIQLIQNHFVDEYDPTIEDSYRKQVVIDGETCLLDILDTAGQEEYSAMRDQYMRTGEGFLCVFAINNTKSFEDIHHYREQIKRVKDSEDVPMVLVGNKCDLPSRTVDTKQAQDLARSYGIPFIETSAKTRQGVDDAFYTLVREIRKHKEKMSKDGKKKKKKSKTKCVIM
Excerpt: as §1

[1] = KRAS G12D, read-out: KRAS^G12D Probe Displacement Assay IC50
[2] = KRAS WT, read-out: KRAS^WT Probe Displacement Assay IC50
[3] = KRAS^G12D Probe Displacement Assay IC50, KRAS G12D
[4] = KRAS^WT Probe Displacement Assay IC50, KRAS WT

Chain of KRAS G12D (P01116 1-188 isoform P01116-2 G12D): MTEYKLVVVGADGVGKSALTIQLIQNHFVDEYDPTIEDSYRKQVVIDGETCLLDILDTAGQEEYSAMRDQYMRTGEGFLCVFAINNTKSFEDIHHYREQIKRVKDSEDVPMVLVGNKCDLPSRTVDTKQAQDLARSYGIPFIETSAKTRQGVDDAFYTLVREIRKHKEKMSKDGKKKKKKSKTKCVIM

| SMILES | IC50 (KRAS G12D; [1]) [nM] | IC50 (WT KRAS; [2]) [nM] | IC50 (KRAS G12D; [3]) [nM] | IC50 (WT KRAS; [4]) [nM] |
| --- | --- | --- | --- | --- |
| CO[C@@H]1CCN(CC2(COc3nc4c5c(nc(-c6cc(N)cc(C)c6C(F)(F)F)c(F)c5n3)OCC[C@@H]3[C@@H]5CC[C@H](CN43)N5)CC2)C1 [Example 87, 3-((6aR,7S,10R)-1-fluoro-13-((1-(((R)-3-methoxypyrrolidin-1-yl)methyl)cyclopropyl)methoxy)-5,6,6a,7,8,9,10,11-octahydro-4-oxa-3,11a,12,14,15-pentaaza-7,10-methanocyclohepta [4,5]cycloocta [1,2,3-de]naphthalen-2-yl)-5-methyl-4-(trifluoromethyl)aniline] | < 0.3 | 3 to 1000 | – | – |
| Cc1cc(N)cc(-c2nc3c4c(nc(OCC5(C)CN(C)CCC5C(F)F)nc4c2F)N2C[C@H]4CC[C@H](N4)[C@H]2CCO3)c1C(F)(F)F (single isomer, unassigned) [Example 245] | < 0.3 | 0.3 to 3 | – | – |
| Cc1cc(N)cc(-c2nc3c4c(nc(OCC5(CN6CCC7(COC7)C6)CC5)nc4c2F)N2C[C@H]4CC[C@H](N4)[C@H]2CCO3)c1C(F)(F)F [Example 189, 3-((6aR,7S,10R)-13-((1-((2-oxa-6-azaspiro[3.4]octan-6-yl)methyl)cyclopropyl)methoxy)-1-fluoro-5,6,6a,7,8,9,10,11-octahydro-4-oxa-3,11a,12,14,15-pentaaza[7,10]methanocyclohepta[4,5]cycloocta[1,2,3-de]naphthalen-2-yl)-5-methyl-4-(trifluoromethyl)aniline] | < 0.3 | 3 to 1000 | – | – |
| Cc1cc(N)cc(-c2nc3c4c(nc(OCC5(CN(C)C)CC5(F)F)nc4c2F)N2C[C@H]4CC[C@H](N4)[C@H]2CCO3)c1C(F)(F)F (single isomer, unassigned) [Example 17] | < 0.3 | 3 to 1000 | – | – |
| CCN1C[C@H](F)C[C@H]1[C@H](C)Oc1nc2c3c(nc(-c4cc(N)cc(C)c4C(F)(F)F)c(F)c3n1)OCC[C@@H]1[C@@H]3CC[C@H](CN21)N3 [Example 222, 3-((6aR,7S,10R)-13-((S)-1-((2S,4R)-1-ethyl-4-fluoropyrrolidin-2-yl)ethoxy)-1-fluoro-5,6,6a,7,8,9,10,11-octahydro-4-oxa-3,11a,12,14,15-pentaaza-7,10-methanocyclohepta[4,5]cycloocta[1,2,3-de]naphthalen-2-yl)-5-methyl-4-(trifluoromethyl)aniline] | < 0.3 | 3 to 1000 | – | – |
| Cc1cc(N)cc(-c2nc3c4c(nc(OCC5(CN6CC=CCC6)CC5)nc4c2F)N2C[C@H]4CC[C@H](N4)[C@H]2CCO3)c1C(F)(F)F [Example 112, 3-((6aR,7S,10R)-13-((1-((3,6-dihydropyridin-1(2H)-yl)methyl)cyclopropyl)methoxy)-1-fluoro-5,6,6a, 7,8,9,10,11-octahydro-4-oxa-3,11a,12,14,15-pentaaza-7,10-methanocyclohepta [4,5]cycloocta [1,2,3-de]naphthalen-2-yl)-5-methyl-4-(trifluoromethyl) aniline] | – | – | < 0.3 | 3 to 1000 |
| COC[C@@H]1[C@@H]2C[C@@H]2CN1CC1(COc2nc3c4c(nc(-c5cc(N)cc(C)c5C(F)(F)F)c(F)c4n2)OCC[C@@H]2[C@@H]4CC[C@H](CN32)N4)CC1 [Example 180, 3-((6aR,7S,10R)-1-fluoro-13-((1-(((1R,2S,5S)-2-(methoxymethyl)-3-azabicyclo[3.1.0]hexan-3-yl)methyl)cyclopropyl)methoxy)-5,6,6a,7,8,9,10,11-octahydro-4-oxa-3,11a,12,14,15-pentaaza-7,10-methanocyclohepta[4,5]cycloocta[1,2,3-de]naphthalen-2-yl)-5-methyl-4-(trifluoromethyl)aniline] | 0.3 to 3 | 3 to 1000 | – | – |
| CO[C@H]1CN2C[C@H](F)C[C@]2(COc2nc3c4c(nc(-c5cc(N)cc(C)c5C(F)(F)F)c(F)c4n2)OCC[C@@H]2[C@@H]4CC[C@H](CN32)N4)C1 [Example 214, 3-((6aR,7S,10R)-1-fluoro-13-(((2R,6R,7aS)-2-fluoro-6-methoxytetrahydro-1H-pyrrolizin-7a(5H)-yl)methoxy)-5,6,6a,7,8,9,10,11-octahydro-4-oxa-3,11a,12,14,15-pentaaza-7,10-methanocyclohepta[4,5]cycloocta[1,2,3-de]naphthalen-2-yl)-5-methyl-4-(trifluoromethyl)aniline] | < 0.3 | 3 to 1000 | – | – |
| Cc1cc(N)cc(-c2nc3c4c(nc(OCC5(CN6C[C@H]7CC[C@@H](C6)O7)CC5)nc4c2F)N2C[C@H]4CC[C@H](N4)[C@H]2CCO3)c1C(F)(F)F [Example 106, 3-((6aR,7S,10R)-13-((1-(((1R,5S)-8-oxa-3-azabicyclo [3.2.1]octan-3-yl)methyl)cyclopropyl)methoxy)-1-fluoro-5,6,6a, 7,8,9,10,11-octahydro-4-oxa-3,11a,12,14,15-pentaaza-7,10-methanocyclohepta [4,5]cycloocta [1,2,3-de]naphthalen-2-yl)-5-methyl-4-(trifluoromethyl)aniline] | < 0.3 | 3 to 1000 | – | – |
| Cc1cc(N)cc(-c2nc3c4c(nc(OCC5(C)COCC5N(C)C)nc4c2F)N2C[C@H]4CC[C@H](N4)[C@H]2CCO3)c1C(F)(F)F (single isomer, unassigned) [Example 42] | 0.3 to 3 | 3 to 1000 | – | – |
| CCN1CCN(CC2(COc3nc4c5c(nc(-c6cc(N)cc(C)c6C(F)(F)F)c(F)c5n3)OCC[C@@H]3[C@@H]5CC[C@H](CN43)N5)CC2)CC1 [Example 152, 3-((6aR,7S,10R)-13-((1-((4-ethylpiperazin-1-yl)methyl)cyclopropyl)methoxy)-1-fluoro-5,6,6a,7,8,9,10,11-octahydro-4-oxa-3,11a,12,14,15-pentaaza-7,10-methano-cyclohepta[4,5]cycloocta [1,2,3-de]naphthalen-2-yl)-5-methyl-4-(trifluoromethyl) aniline] | – | – | < 0.3 | 3 to 1000 |
| CO[C@H]1CN2C[C@H](F)C[C@]2(COc2nc3c4c(nc(-c5cc(N)cc(Cl)c5C(F)(F)F)c(F)c4n2)OCC[C@@H]2[C@@H]4CC[C@H](CN32)N4)C1 [Example 215, 3-chloro-5-((6aR,7S,10R)-1-fluoro-13-(((2R,6R,7aS)-2-fluoro-6-methoxytetrahydro-1H-pyrrolizin-7a(5H)-yl)methoxy)-5,6,6a,7,8,9,10,11-octahydro-4-oxa-3,11a,12,14,15-pentaaza-7,10-methanocyclohepta[4,5]cycloocta[1,2,3-de]naphthalen-2-yl)-4-(trifluoromethyl)aniline] | < 0.3 | 3 to 1000 | – | – |
| Cc1cc(N)cc(-c2nc3c4c(nc(OCC5(C)CN(C)CCC5C(F)F)nc4c2F)N2C[C@H]4CC[C@H](N4)[C@H]2CCO3)c1C(F)(F)F (single isomer, unassigned) [Example 244] | 0.3 to 3 | 3 to 1000 | – | – |
| CN(C)C1(C)CN(c2nc3c4c(nc(-c5cc(N)cc(Cl)c5C(F)(F)F)c(F)c4n2)OCC[C@@H]2[C@@H]4CC[C@H](CN32)N4)C1 [Example 31, 1-((6aR,7S,10R)-2-(5-amino-3-chloro-2-(trifluoromethyl)phenyl)-1-fluoro-5,6,6a,7,8,9,10,11-octahydro-4-oxa-3,11a,12,14,15-pentaaza-7,10-methanocyclohepta[4,5]cycloocta [1,2,3-de]naphthalen-13-yl)-N,N,3-trimethylazetidin-3-amine] | 0.3 to 3 | 3 to 1000 | – | – |
| Cc1cc(N)cc(-c2nc3c4c(nc(OCC5(CN6CC(C(F)(F)F)C6)CC5)nc4c2F)N2C[C@H]4CC[C@H](N4)[C@H]2CCO3)c1C(F)(F)F [Example 79, 3-((6aR,7S,10R)-1-fluoro-13-((1-((3-(trifluoromethyl)azetidin-1-yl)methyl)cyclopropyl)methoxy)-5,6,6a,7,8,9,10,11-octahydro-4-oxa-3,11a,12,14,15-pentaaza-7,10-methanocyclohepta [4,5]cycloocta [1,2,3-de]naphthalen-2-yl)-5-methyl-4-(trifluoromethyl)aniline] | < 0.3 | 3 to 1000 | – | – |
| Cc1cc(N)cc(-c2nc3c4c(nc(OC[C@@]56CCCN5CC(=C(F)F)C6)nc4c2F)N2C[C@H]4CC[C@H](N4)[C@H]2CCO3)c1C(F)(F)F [Example 200, 3-((6aR,7S,10R)-13-(((S)-2-(difluoromethylene)tetrahydro-1H-pyrrolizin-7a(5H)-yl)methoxy)-1-fluoro-5,6,6a,7,8,9,10,11-octahydro-4-oxa-3,11a,12,14,15-pentaaza-7,10-methanocyclohepta[4,5]cycloocta[1,2,3-de]naphthalen-2-yl)-5-methyl-4-(trifluoromethyl)aniline] | < 0.3 | 3 to 1000 | – | – |
| Cc1cc(N)cc(-c2nc3c4c(nc(OCC5(CN6CCC(F)(F)CC6)CC5)nc4c2F)N2C[C@H]4CC[C@H](N4)[C@H]2CCO3)c1C(F)(F)F [Example 70, 3-((6aR,7S,10R)-13-((1-((4,4-difluoropiperidin-1-yl)methyl)cyclopropyl)methoxy)-1-fluoro-5,6,6a,7,8,9,10,11-octahydro-4-oxa-3,11a,12,14,15-pentaaza-7,10-methanocyclohepta[4,5]cycloocta [1,2,3-de]naphthalen-2-yl)-5-methyl-4-(trifluoromethyl)aniline] | < 0.3 | 0.3 to 3 | – | – |
| Cc1cc(N)cc(-c2nc3c4c(nc(OCC5(CN6CC7(CCOCC7)C6)CC5)nc4c2F)N2C[C@H]4CC[C@H](N4)[C@H]2CCO3)c1C(F)(F)F [Example 85, 3-((6aR,7S,10R)-13-((1-((7-oxa-2-azaspiro[3.5]nonan-2-yl)methyl)cyclopropyl)methoxy)-1-fluoro-5,6,6a, 7,8,9,10,11-octahydro-4-oxa-3,11a,12,14,15-pentaaza[7,10]methanocyclohepta [4,5]cycloocta [1,2,3-de]naphthalen-2-yl)-5-methyl-4-(trifluoromethyl)aniline] | < 0.3 | 0.3 to 3 | – | – |
| [2H]C([2H])([2H])N1CC/C(=C\F)C(C)(C([2H])([2H])Oc2nc3c4c(nc(-c5cc(N)cc(C)c5C(F)(F)F)c(F)c4n2)OCC[C@@H]2[C@@H]4CC[C@H](CN32)N4)C1 (single isomer, unassigned) [Example 242] | < 0.3 | 3 to 1000 | – | – |
